Measured values published in patent publication US20190352341A1, “MODIFIED PEPTIDES AND THEIR USE FOR TREATING SYSTEMIC LUPUS ERYTHEMATOSUS” (IMMUPHARMA FRANCE SA, priority 2018, published 2019).
Values joined by “and” are separate entries in the source; they are usually repeats but may differ in a detail not shown here. Identical values can stand only once. Numbered stars: 1 amine (or outer) side, 2 acyl side, 3 side chain; on linkers, the order of the positions; unused ones are H or OH. Square brackets hold non-standard residues; d marks the D form. Peptide text beside a SMILES is read from it. ξ: configuration not given here. X1 = CSCC[C@H](NC(=N)[C@H](Cc1c[nH]cn1)N[*:1])C(=O)[*:2]; pS = N[C@@H](COP(=O)(O)O)C(=O)O; Ile(3ξ) = CCC(C)[C@H](N)C(=O)O

Test system: Balb/c mice
Test: 31-day HDM-induced asthma model, airway response to methacholine (Flexivent)
Assay type: in vivo, mouse
Settings: for Crs / Ers / Rrs: individual mice
Experimental: The aim of this study was to evaluate the effect of the P140 phosphopeptide administered systemically (intravenously) in a 31-day model of HDM-induced asthma in mice. The P140 phosphopeptide was solubilized in sterile water (Braun) and 10× concentrate sterile saline was added to adjust osmolarity to 300 mosm. Osmolarity was controlled with a micro osmometer (Löser, type 15) and validated (303 mosm). The P140 phosphopeptide was used in vivo at the dose of 4 mg/kg by intravenous (i.v.) routes. Control animals received equivalent volumes (2 ml/kg) of saline (Table 8).
Nine-week-old male Balb/c mice were sensitized by intranasal (i.n.) administration of HDM extract (Stallergenes): 1 μg in 25 μl saline on days 0, 1, 2, 3, 4, and 10 μg on days 14 and 21. Mice were challenged by i.n. administration of HDM (1 μg) and/or saline on days 28, 29 and 30. Mice were treated by i.v. injection (2 ml/kg) of P140 or solvent on day 25 (see FIG. 14).
Airway response to Methacholine (Flexivent®). On day 31, airway responses to PBS then methacholine were assessed using a forced oscillation technique (Flexivent®, SCIREQ, Montreal, Canada) as described (Daubeuf et al, Bioprotocol, 645, 2013). Mice were anesthetized with an intraperitoneal injection of xylasine (Rompun®; 1 mg/kg), followed fifteen minutes later by an intraperitoneal injection of pentobarbital sodium (3.64 mg/Kg). The trachea was exposed and an 18-gauge metal needle was inserted into the trachea. Airways were connected to a computer-controlled small animal ventilator, and quasi-sinusoidally ventilated with a tidal volume of 10 ml/Kg at a frequency of 150 breaths/min and a positive end-expiratory pressure of 2 cm H2O to achieve a mean respiratory volume close to that of spontaneous breathing. After baseline measurement, each mouse was challenged for 10 sec with an aerosol of PBS generated with an in-line nebulizer and administered directly through the ventilator. Then, aerosolized methacholine (MCh) at 50 mg/ml was administered for 10 sec. The effect of methacholine was calculated as the peak response, i.e. the mean of the three maximal values integrated for calculation of airway resistance (R, cm H20·s·mL^−1), elastance (E, cm H20·mL^−1) and compliance (C, mL·cm H20^−1).
All mice were sensitized to HDM on days 0, 1, 2, 3, 4, 14, 21, and challenged either with saline ([…]) or HDM (challenge with allergen). Results are presented as means±SEM. Differences between groups were tested for statistical significance using Student's t test for inflammatory cells and a two-way ANOVA followed by Bonferroni post-test for airway responses.

[1] = HDM-challenged (HDM + P140), first of two unheaded values (presumably PBS)
[2] = HDM-challenged (HDM + P140), second of two unheaded values (presumably MCh 50 mg/mL)
[3] = chronic asthma (saline-challenged), methacholine 50 mg/ml, P140 i.v. 4 mg/kg day 25
[4] = saline-challenged (chronic asthma), first of two unheaded values (presumably PBS)
[5] = saline-challenged (chronic asthma), second of two unheaded values (presumably MCh 50 mg/mL)

CCC(C)[C@H](NC(=O)[C@H](Cc1ccccc1)NC(=O)[C@H](C)NC(=O)[C@H](Cc1ccc(O)cc1)NC(=O)CNC(=O)[C@H](CCCNC(=N)N)NC(=O)[C@@H]1CCCN1C(=O)[C@H](CCCCN)NC(=O)CNC(=O)[C@H](COP(=O)(O)O)NC(=O)[C@H](CCCNC(=N)N)NC(=O)[C@H](CCCCN)NC(=O)[C@H](CO)NC(=O)[C@H](Cc1ccc(O)cc1)NC(=O)[C@@H](NC(=O)[C@H](CCSC)NC(=N)[C@H](Cc1c[nH]cn1)NC(=O)[C@@H](NC(=O)[C@@H](N)CCCNC(=N)N)C(C)CC)C(C)C)C(=O)N[C@@H](CCC(=O)O)C(=O)N[C@@H](Cc1ccc(O)cc1)C(=O)O (some centres unmarked) [Compound P140] (H-R[Ile(3ξ)][X1]VYSKR[pS]GKPRGYAF[Ile(3ξ)]EY-OH)
Crs [1]: 0.0554 mL/cmH2O and 0.0514 mL/cmH2O and 0.0528 mL/cmH2O and 0.0566 mL/cmH2O and 0.0492 mL/cmH2O and 0.0458 mL/cmH2O and 0.0552 mL/cmH2O and 0.0589 mL/cmH2O | Ers [1]: 18.0582 cmH2O/mL and 19.4433 cmH2O/mL and 18.9515 cmH2O/mL and 17.6781 cmH2O/mL and 20.3326 cmH2O/mL and 21.8367 cmH2O/mL and 18.1106 cmH2O/mL and 16.9723 cmH2O/mL | Rrs [1]: 0.6405 cmH2O · s/mL and 0.6092 cmH2O · s/mL and 0.7972 cmH2O · s/mL and 0.5185 cmH2O · s/mL and 0.6804 cmH2O · s/mL and 0.6365 cmH2O · s/mL and 0.4744 cmH2O · s/mL and 0.5456 cmH2O · s/mL | Crs [2]: 0.0146 mL/cmH2O and 0.0075 mL/cmH2O and 0.0062 mL/cmH2O and 0.0065 mL/cmH2O and 0.0101 mL/cmH2O and 0.0060 mL/cmH2O and 0.0138 mL/cmH2O and 0.0081 mL/cmH2O | Ers [2]: 79.8018 cmH2O/mL and 148.4985 cmH2O/mL and 188.1151 cmH2O/mL and 219.9720 cmH2O/mL and 125.7688 cmH2O/mL and 173.4582 cmH2O/mL and 72.6033 cmH2O/mL and 131.8035 cmH2O/mL | Rrs [2]: 5.6421 cmH2O · s/mL and 10.3886 cmH2O · s/mL and 11.9654 cmH2O · s/mL and 10.5419 cmH2O · s/mL and 8.8810 cmH2O · s/mL and 13.0087 cmH2O · s/mL and 7.0705 cmH2O · s/mL and 9.7688 cmH2O · s/mL | Airway resistance, elastance or compliance (allergen (HDM)-challenged mice, vs solvent group): no effect | Airway compliance, change vs solvent group [3]: +115% | Elastance, change vs solvent group [3]: −65% | Airway resistance, change vs solvent group (chronic asthma (saline-challenged), methacholine 50 mg/ml, P140 i.v. 4 mg/kg day 25, non-significant): −42% | Crs [4]: 0.0545 mL/cmH2O and 0.0498 mL/cmH2O and 0.0569 mL/cmH2O and 0.0541 mL/cmH2O and 0.0650 mL/cmH2O | Ers [4]: 18.3671 cmH2O/mL and 20.0811 cmH2O/mL and 17.5777 cmH2O/mL and 18.4893 cmH2O/mL and 15.3975 cmH2O/mL | Rrs [4]: 0.5590 cmH2O · s/mL and 0.8945 cmH2O · s/mL and 0.5926 cmH2O · s/mL and 0.8074 cmH2O · s/mL and 0.4418 cmH2O · s/mL | Crs [5]: 0.0304 mL/cmH2O and 0.0132 mL/cmH2O and 0.0380 mL/cmH2O and 0.0238 mL/cmH2O and 0.0370 mL/cmH2O | Ers [5]: 33.3720 cmH2O/mL and 84.9688 cmH2O/mL and 26.3200 cmH2O/mL and 42.4174 cmH2O/mL and 28.6047 cmH2O/mL | Rrs [5]: 4.1067 cmH2O · s/mL and 9.4002 cmH2O · s/mL and 2.2229 cmH2O · s/mL and 4.0926 cmH2O · s/mL and 2.1844 cmH2O · s/mL | Baseline airway resistance, elastance and compliance after PBS inhalation (saline-challenged mice, P140 i.v. 4 mg/kg day 25, vs solvent-treated mice): no effect on any parameter
